Among the data in patent publication US20240182445A1 (ONO PHARMACEUTICAL CO., LTD., priority 2019, published 2024) are IC50 values, retold here.

One assay concerns the target T1, human TREK-1 (Homo sapiens, UniProt O95069).
T1 construct: expressed in transfected cells
T1 sequence (O95069 1-426): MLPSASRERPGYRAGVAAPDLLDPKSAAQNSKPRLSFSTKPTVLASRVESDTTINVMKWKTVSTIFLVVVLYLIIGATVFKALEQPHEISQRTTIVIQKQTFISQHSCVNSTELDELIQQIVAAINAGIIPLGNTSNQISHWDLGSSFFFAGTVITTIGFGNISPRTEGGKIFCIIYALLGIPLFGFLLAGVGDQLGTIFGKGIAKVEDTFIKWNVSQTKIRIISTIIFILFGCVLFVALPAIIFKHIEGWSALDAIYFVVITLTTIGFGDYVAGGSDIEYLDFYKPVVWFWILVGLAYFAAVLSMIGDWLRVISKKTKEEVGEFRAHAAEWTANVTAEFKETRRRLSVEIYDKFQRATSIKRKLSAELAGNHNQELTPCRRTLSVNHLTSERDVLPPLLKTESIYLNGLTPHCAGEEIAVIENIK
As to the kind of experiment: TREK-1 Thallium (Tl+) flux assay, Method 1. The note with it: TREK-1 Thallium (Tl+) flux assay, Method 1. Format: cell-based. Summed up: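 Readout: Thallos fluorescence ratio, taken 25 s post-thallium relative to the pre-thallium baseline average, then converted to % inhibition. Cells were CHO-K1 stably expressing human TREK-1, dye-loaded and exposed to test compound (vehicle 0.3% DMSO) for 10 min prior to thallium stimulation.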
For orientation: IC50 means the concentration at which inhibition is half-maximal. `Cc1cc(OCc2ccccc2)ccc1NC(=O)c1c(Cl)cnn1C1CCN(C(=O)C(C)(C)C)CC1` [Compound 405, N-(4-(benzyloxy)-2-methylphenyl)-4-chloro-1-(1-pivaloylpiperidin-4-yl)-1H-pyrazole-5-carboxamide] had an IC50 of 2310 nM.
Turning to `COc1ncc(-c2cnc(NC(=O)c3c(Cl)cnn3C3CCN(C(=O)OC(C)(C)C)CC3)c(C)c2)cn1` [Compound 419, tert-butyl 4-(4-chloro-5-((5-(2-methoxypyrimidin-5-yl)-3-methylpyridin-2-yl)carbamoyl)-1H-pyrazol-1-yl)piperidine-1-carboxylate], the IC50 stood at 4190 nM.

The assay is the same for the next values; noted with them: TREK-1 Thallium (Tl+) flux assay; no *^12 (Method 2) mark on these rows.
For the compound `Cc1cc(C#Cc2ccccc2)cnc1NC(=O)c1c(Cl)cnn1CC1CN(C(=O)C2CC2)C1` [Compound 274, 4-chloro-1-((1-(cyclopropanecarbonyl)azetidin-3-yl)methyl)-N-(3-methyl-5-(phenylethynyl)pyridin-2-yl)-1H-pyrazole-5-carboxamide], the IC50 came out at 470 nM.
With `Cc1cc(C#Cc2ccccc2)cnc1NC(=O)c1c(Cl)cnn1CC1CCN(C(=O)C(C)C)CC1(F)F` (stereo not drawn) [Compound 231, 4-chloro-1-((3,3-difluoro-1-isobutyrylpiperidin-4-yl)methyl)-N-(3-methyl-5-(phenylethynyl)pyridin-2-yl)-1H-pyrazole-5-carboxamide], the half-maximal inhibitory concentration (IC50) worked out at 350 nM.
`CC(C)(C)OC(=O)N[C@@H]1CC[C@@H](n2ncc(Cl)c2C(=O)Nc2ncc(C#Cc3ccccc3)cc2F)C1` [Compound 221, tert-butyl ((1R,3R)-3-(4-chloro-5-((3-fluoro-5-(phenylethynyl)pyridin-2-yl)carbamoyl)-1H-pyrazol-1-yl)cyclopentyl)carbamate] showed an IC50 of 340 nM.
`Cc1cc(C#Cc2ccccc2)cnc1NC(=O)c1c(Cl)cnn1[C@H]1C[C@@H](NC(=O)OC(C)(C)C)C1` [Compound 357, tert-butyl (cis-3-(4-chloro-5-((3-methyl-5-(phenylethynyl)pyridin-2-yl)carbamoyl)-1H-pyrazol-1-yl)cyclobutyl)carbamate] returned an IC50 of 870 nM.
Consider `COc1ccc(-c2cnc(NC(=O)c3c(Cl)cnn3C3CCN(C(=O)OC(C)(C)C)CC3)c(C)c2)cc1OC` [Compound 384, tert-butyl 4-(4-chloro-5-((5-(3,4-dimethoxyphenyl)-3-methylpyridin-2-yl)carbamoyl)-1H-pyrazol-1-yl)piperidine-1-carboxylate], for which the half-maximal inhibitory concentration (IC50) is 740 nM.
With `CC(C)(C)OC(=O)N1CC[C@H](n2ncc(Cl)c2C(=O)Nc2ncc(C#Cc3ccccc3)cc2F)C1` [Compound 315, tert-butyl (S)-3-(4-chloro-5-((3-fluoro-5-(phenylethynyl)pyridin-2-yl)carbamoyl)-1H-pyrazol-1-yl)pyrrolidine-1-carboxylate], half-maximal inhibition (IC50) was put at 600 nM.
The compound `Cc1cc(C#Cc2ccc(F)cc2)cnc1NC(=O)c1c(Cl)cnn1CC1CCCN(C(=O)C(C)C)C1` (stereo not drawn) [Compound 272, 4-chloro-N-(5-((4-fluorophenyl)ethynyl)-3-methylpyridin-2-yl)-1-((1-isobutyrylpiperidin-3-yl)methyl)-1H-pyrazole-5-carboxamide] gave a concentration for half-maximal inhibition (IC50) of 460 nM.
On the same count and under the same terms, the result for `CC(=O)N1C[C@H]2C[C@H](n3ncc(Cl)c3C(=O)Nc3ncc(C#Cc4ccccc4F)cc3C)C[C@H]2C1` [Compound 359, 1-[(3aR,5s,6aS)-2-acetyloctahydrocyclopenta[c]pyrrol-5-yl]-4-chloro-N-{5-[(2-fluorophenyl)ethynyl]-3-methylpyridin-2-yl}-1H-pyrazole-5-carboxamide] reads 900 nM; that for `O=C(Nc1ncc(C#Cc2ccccc2)cc1F)c1c(Cl)cnn1[C@H]1CCOC1` [Compound 275, (S)-4-chloro-N-(3-fluoro-5-(phenylethynyl)pyridin-2-yl)-1-(tetrahydrofuran-3-yl)-1H-pyrazole-5-carboxamide], 480 nM.
`COCCn1ncc(Cl)c1C(=O)Nc1ncc(C#Cc2ccccc2)cc1C` [Compound 369, 4-chloro-1-(2-methoxyethyl)-N-(3-methyl-5-(phenylethynyl)pyridin-2-yl)-1H-pyrazole-5-carboxamide]: the half-maximal inhibitory concentration (IC50) came to 950 nM.
For the compound `Cc1cc(C#Cc2ccc(F)cc2)cnc1NC(=O)c1c(Cl)cnn1C1CCN(C(=O)C2CC2)C1` (stereo not drawn) [Compound 229, 4-chloro-1-(1-(cyclopropanecarbonyl)pyrrolidin-3-yl)-N-(5-((4-fluorophenyl)ethynyl)-3-methylpyridin-2-yl)-1H-pyrazole-5-carboxamide], the IC50 stood at 350 nM. This IC50 lies about 2.7-fold lower than the previous one.
The compound `CC(C)(C)OC(=O)N[C@H]1C[C@@H](n2ncc(Cl)c2C(=O)Nc2ncc(C#Cc3ccccc3)cc2F)C1` [Compound 325, tert-butyl (cis-3-(4-chloro-5-((3-fluoro-5-(phenylethynyl)pyridin-2-yl)carbamoyl)-1H-pyrazol-1-yl)cyclobutyl)carbamate] displayed an IC50 of 640 nM.

The assay is the same for the next values; noted with them: TREK-1 Thallium (Tl+) flux assay; values without footnote *12 are Method 1.
With `Cc1cc(C#Cc2ccc(F)cc2)cnc1NC(=O)c1c(Cl)cnn1C1CC2(C1)CN(C(=O)C1COCCO1)C2` (stereo not drawn) [Compound 138, 1-(2-(1,4-dioxane-2-carbonyl)-2-azaspiro[3.3]heptan-6-yl)-4-chloro-N-(5-((4-fluorophenyl)ethynyl)-3-methylpyridin-2-yl)-1H-pyrazole-5-carboxamide], the IC50 was 220 nM. This lies in the sub-micromolar range.
Compound `CC(=O)N1CCC(Cn2ncc(Cl)c2C(=O)Nc2ncc(C#Cc3ccccc3)cc2F)C(F)(F)C1` (stereo not drawn) [Compound 192, 1-((1-acetyl-3,3-difluoropiperidin-4-yl)methyl)-4-chloro-N-(3-fluoro-5-(phenylethynyl)pyridin-2-yl)-1H-pyrazole-5-carboxamide] had an IC50 of 290 nM. This IC50 and that of the compound before are within 1.5-fold of each other.
For `Cc1cc(C#Cc2ccc(F)cc2)cnc1NC(=O)c1c(Cl)cnn1C1CCN(C(=O)C2COCCO2)CC1` (stereo not drawn) [Compound 65, 1-(1-(1,4-dioxane-2-carbonyl)piperidin-4-yl)-4-chloro-N-(5-((4-fluorophenyl)ethynyl)-3-methylpyridin-2-yl)-1H-pyrazole-5-carboxamide], the half-inhibitory concentration (IC50) was found to be 150 nM. This IC50 is about 1.9-fold lower than that of the compound before.
Still for that read-out and setting: next, `CC(=O)N1CCC(CCn2ncc(Cl)c2C(=O)Nc2ncc(C#Cc3ccccc3)cc2F)CC1` [Compound 102, 1-(2-(1-acetylpiperidin-4-yl)ethyl)-4-chloro-N-(3-fluoro-5-(phenylethynyl)pyridin-2-yl)-1H-pyrazole-5-carboxamide]: 190 nM; `Cc1cc(C#Cc2ccccc2)cnc1NC(=O)c1c(Cl)cnn1[C@H]1CC[C@H](NC(=O)C(C)C)CC1` [Compound 191, 4-chloro-1-(trans-4-isobutyramidocyclohexyl)-N-(3-methyl-5-(phenylethynyl)pyridin-2-yl)-1H-pyrazole-5-carboxamide]: 290 nM.
Still for that read-out and setting: the result for `Cc1cc(C#Cc2ccccc2)cnc1NC(=O)c1c(Cl)cnn1C1CCN(C(=O)C2COCCO2)C1` (stereo not drawn) [Compound 80, 1-(1-(1,4-dioxane-2-carbonyl)pyrrolidin-3-yl)-4-chloro-N-(3-methyl-5-(phenylethynyl)pyridin-2-yl)-1H-pyrazole-5-carboxamide] reads 160 nM; that for `Cc1cc(C#Cc2ccccc2)cnc1NC(=O)c1c(Cl)cnn1CC1CCN(C(=O)OC(C)(C)C)CC1` [Compound 186, tert-butyl 4-((4-chloro-5-((3-methyl-5-(phenylethynyl)pyridin-2-yl)carbamoyl)-1H-pyrazol-1-yl)methyl)piperidine-1-carboxylate], 290 nM.
Same read-out and setting: the result for `CC(=O)N1CCC(n2ncc(Cl)c2C(=O)Nc2ncc(C#Cc3ccccc3)cc2C)C(F)C1` (stereo not drawn) [Compound 29, 1-(1-acetyl-3-fluoropiperidin-4-yl)-4-chloro-N-(3-methyl-5-(phenylethynyl)pyridin-2-yl)-1H-pyrazole-5-carboxamide] reads 100 nM.
Regarding `CC(=O)N1CC[C@@H](n2ncc(Cl)c2C(=O)Nc2ncc(C#Cc3ccccc3)cc2F)[C@H](F)C1` [Compound 20, 1-((3R,4R)-1-acetyl-3-fluoropiperidin-4-yl)-4-chloro-N-(3-fluoro-5-(phenylethynyl)pyridin-2-yl)-1H-pyrazole-5-carboxamide], the IC50 was 70 nM.
Take `CCNC(=O)N1CCC(n2ncc(Cl)c2C(=O)Nc2ncc(C#Cc3ccc(F)cc3)cc2C)CC1` [Compound 92, 4-(4-chloro-5-((5-((4-fluorophenyl)ethynyl)-3-methylpyridin-2-yl)carbamoyl)-1H-pyrazol-1-yl)-N-ethylpiperidine-1-carboxamide]: the IC50 turned out to be 180 nM. This IC50 lies about 2.6-fold higher than the previous one.
`Cc1cc(C#Cc2ccccc2)cnc1NC(=O)c1c(Cl)cnn1C[C@@H]1CCN(C(=O)C(C)C)C[C@@H]1F` [Compound 118, 4-chloro-1-(((3R,4S)-3-fluoro-1-isobutyrylpiperidin-4-yl)methyl)-N-(3-methyl-5-(phenylethynyl)pyridin-2-yl)-1H-pyrazole-5-carboxamide]: the concentration for half-maximal inhibition (IC50) was determined as 200 nM.
Regarding `Cc1cc(C#Cc2ccccc2)cnc1NC(=O)c1c(Cl)cnn1C1CCN(C(=O)C(C)C)CC1` [Compound 169], the midpoint of inhibition, the IC50, lay at 270 nM.
In turn, `CC(=O)N1CCC(n2ncc(Cl)c2C(=O)Nc2ncc(C#Cc3ccccc3F)cc2C)CC1` [Compound 164, 1-(1-acetylpiperidin-4-yl)-4-chloro-N-(5-((2-fluorophenyl)ethynyl)-3-methylpyridin-2-yl)-1H-pyrazole-5-carboxamide] registered an IC50 of 260 nM.
